# Test results taken from US20090076142A1, “USE OF THE IRRITATING PRINCIPAL OLEOCANTHAL IN OLIVE OIL, AS WELL AS STRUCTURALLY AND FUNCTIONALLY SIMILAR COMPOUNDS” (The Trustees of the University of Pennsylvania, priority 2005, published 2009).
# What was measured:
# soybean 15-lipoxygenase = target: T1, soybean 15-lipoxygenase (Glycine max, UniProt P08170); assay: 15-lipoxygenase inhibition assay (Cayman Chemicals kit); format: biochemical; conditions: mean ± SEM, three independent experiments, read-out: Percent inhibition of 15-LO
# T1 construct: purchased Cayman Chemicals
# T1 sequence (P08170 1-839): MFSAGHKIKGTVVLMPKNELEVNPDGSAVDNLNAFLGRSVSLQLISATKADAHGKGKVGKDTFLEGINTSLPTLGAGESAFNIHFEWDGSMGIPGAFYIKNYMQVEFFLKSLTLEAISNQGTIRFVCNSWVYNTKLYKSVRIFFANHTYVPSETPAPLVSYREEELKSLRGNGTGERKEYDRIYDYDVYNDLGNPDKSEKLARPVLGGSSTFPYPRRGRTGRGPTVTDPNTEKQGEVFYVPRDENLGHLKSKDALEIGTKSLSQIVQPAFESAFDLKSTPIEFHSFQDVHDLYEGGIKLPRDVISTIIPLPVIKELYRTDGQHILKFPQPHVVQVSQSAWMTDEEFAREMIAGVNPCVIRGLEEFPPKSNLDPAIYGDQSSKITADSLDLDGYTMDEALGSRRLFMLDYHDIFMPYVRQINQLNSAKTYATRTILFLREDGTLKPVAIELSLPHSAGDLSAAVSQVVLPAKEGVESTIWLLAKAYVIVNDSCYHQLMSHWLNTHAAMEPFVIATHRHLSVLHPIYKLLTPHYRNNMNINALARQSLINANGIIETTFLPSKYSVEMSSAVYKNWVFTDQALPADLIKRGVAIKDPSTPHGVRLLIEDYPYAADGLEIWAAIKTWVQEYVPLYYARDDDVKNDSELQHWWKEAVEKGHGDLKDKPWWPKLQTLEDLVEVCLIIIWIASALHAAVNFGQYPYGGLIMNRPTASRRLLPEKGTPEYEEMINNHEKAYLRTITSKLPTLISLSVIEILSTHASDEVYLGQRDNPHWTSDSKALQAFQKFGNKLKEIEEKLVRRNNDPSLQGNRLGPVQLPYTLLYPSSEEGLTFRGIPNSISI
# human recombinant COX-2 = target: T2, human recombinant COX-2 (Homo sapiens, UniProt P35354); assay: Cyclooxygenase COX-2 inhibition assay (Cayman Chemicals kit); format: biochemical; conditions: for inhibition at 7 µM / inhibition at 25 µM / inhibition at 100 µM: mean ± SEM, three independent experiments, read-out: Percent inhibition of COX-2; for IC50: least squares regression analysis of inhibition vs. concentration, read-out: calculated IC50 for COX-2
# T2 construct: purchased Cayman Chemicals
# T2 sequence (P35354 18-604): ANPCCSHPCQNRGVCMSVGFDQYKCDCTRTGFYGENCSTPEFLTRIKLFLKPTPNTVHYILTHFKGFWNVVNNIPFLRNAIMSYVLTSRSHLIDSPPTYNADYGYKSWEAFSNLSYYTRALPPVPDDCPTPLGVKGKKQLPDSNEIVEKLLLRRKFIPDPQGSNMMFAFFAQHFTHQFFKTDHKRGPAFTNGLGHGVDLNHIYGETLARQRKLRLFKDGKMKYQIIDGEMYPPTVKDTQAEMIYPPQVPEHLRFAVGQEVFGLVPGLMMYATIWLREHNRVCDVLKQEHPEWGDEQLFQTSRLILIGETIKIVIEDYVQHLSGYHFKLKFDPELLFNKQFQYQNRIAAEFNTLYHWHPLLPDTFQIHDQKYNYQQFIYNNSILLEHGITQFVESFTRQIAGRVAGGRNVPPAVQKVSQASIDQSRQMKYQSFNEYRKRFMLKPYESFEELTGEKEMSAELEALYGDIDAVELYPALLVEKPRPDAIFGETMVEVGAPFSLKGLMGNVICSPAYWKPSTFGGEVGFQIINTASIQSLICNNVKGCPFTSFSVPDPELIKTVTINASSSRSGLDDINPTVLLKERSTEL
# ovine COX-1 = target: T3, ovine COX-1 (Ovis aries, UniProt P05979); assay: Cyclooxygenase COX-1 inhibition assay (Cayman Chemicals kit); format: biochemical; conditions: for inhibition at 7 µM / inhibition at 25 µM / inhibition at 100 µM: mean ± SEM, three independent experiments, read-out: Percent inhibition of COX-1; for IC50: least squares regression analysis of inhibition vs. concentration, read-out: calculated IC50 for COX-1
# T3 construct: purchased Cayman Chemicals
# T3 sequence (P05979 25-600): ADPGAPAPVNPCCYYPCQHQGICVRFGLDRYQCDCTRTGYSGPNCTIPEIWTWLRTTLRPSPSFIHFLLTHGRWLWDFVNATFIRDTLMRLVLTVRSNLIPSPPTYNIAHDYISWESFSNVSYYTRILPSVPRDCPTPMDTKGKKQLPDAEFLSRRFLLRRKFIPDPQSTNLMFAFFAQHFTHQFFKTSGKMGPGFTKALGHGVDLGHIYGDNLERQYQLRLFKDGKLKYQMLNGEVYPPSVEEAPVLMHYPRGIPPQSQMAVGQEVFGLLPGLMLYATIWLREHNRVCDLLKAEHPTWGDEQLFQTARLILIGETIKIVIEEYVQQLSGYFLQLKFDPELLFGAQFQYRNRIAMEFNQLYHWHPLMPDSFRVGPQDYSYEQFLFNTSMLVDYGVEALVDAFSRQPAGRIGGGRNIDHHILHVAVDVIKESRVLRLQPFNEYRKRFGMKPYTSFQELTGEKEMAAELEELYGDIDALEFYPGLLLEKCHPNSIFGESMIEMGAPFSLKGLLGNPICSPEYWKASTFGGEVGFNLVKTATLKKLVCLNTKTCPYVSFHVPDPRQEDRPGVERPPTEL
# throat irritation = assay: Throat irritation sensory test, two-alternative forced-choice, compound in corn oil; format: in vivo, human
# Protocol: Testing was double-blind and each was exposed to three sets of two samples, one of which was added synthesized oleocanthal and the other served as the blank control. The task was to indicated which of the pair was more irritating. […] Importantly, the effect was dose dependent (FIG. 2 open triangles, dashed line). Ten subjects were tested with non-irritating commercial corn oils presented neat and mixed with either synthesized (−)-oleocanthal or the bitter agent sucrose octaacetate (SOA) (Sigma-Aldrich). […] (−)-Oleocanthal was tested at the highest concentration identified in the ten rated oils, 200 μg/ml, and at one half and whole log steps more dilute 63.25 and 20 μg/ml. SOA was added to the corn oil (4×10^−4, 1×10^−4, 5×10^−5 M) to intensity match the irritation of the three levels of (−)-oleocanthal. Subjects participated in two-alternative forced-choice (2AFC) trials (four trials at every concentration for each subject) and in intensity ratings sessions (four ratings per each oil). For the 2AFC trials subjects were presented with two 3.0 ml corn oil samples with matching intensities of SOA and (−)-oleocanthal in ascending order, and were required to sample oils as described above. While blind to stimulus position, subjects were asked two questions on each trial, “Which of the two oils was more irritating in the throat?” and “Which one was more bitter?” At the 20 μg/ml & 5×10^−5 M level most subjects reported on some trials that the same oil was both the more irritating and the more bitter of the two. […] Subjects performed at chance when selecting among two unadulterated corn oils, when the correct choice was randomly assigned prior to testing. […] The other two concentrations were correct 39/40 and 40/40 trials. For the intensity rating trials subjects were presented with all eight oils in ascending order, counterbalanced for stimulus order and asked to rate the throat irritation and bitterness of every oil on a general labeled magnitude scale.
inhibition at 7 µM (soybean 15-lipoxygenase) [%],inhibition at 25 µM (soybean 15-lipoxygenase) [%],inhibition at 100 µM (soybean 15-lipoxygenase) [%],inhibition at 7 µM (human recombinant COX-2) [%],inhibition at 25 µM (human recombinant COX-2) [%],inhibition at 100 µM (human recombinant COX-2) [%],IC50 (human recombinant COX-2) [µM],inhibition at 7 µM (ovine COX-1) [%],inhibition at 25 µM (ovine COX-1) [%],inhibition at 100 µM (ovine COX-1) [%],IC50 (ovine COX-1) [µM],SMILES,"correct 2AFC trials (more irritating in the throat) (throat irritation; 20 μg/ml in corn oil vs SOA, ten subjects)","detection threshold level of throat irritation in corn oil (throat irritation; corn oil, ten subjects) [µg/mL]",throat irritation compared with oleocanthal isolated from premium olive oil (throat irritation; synthetic compound in corn oil),"correct identification of the more irritating sample (2AFC) (throat irritation; three evaluators, three presentations, corn oil, approximately twice the concentration found in Falconaro olive oil, p<0.01)"
0,0.7 ± 1,3.5 ± 5.5,6.1 ± 4.2,41.3 ± 15.9,69.6 ± 3.9,40.5,24.6 ± 7.5,54.5 ± 4.6,68 ± 15.2,27.9,"CC=C(C=O)C(CC=O)CC(=O)OCCc1ccc(O)cc1 (single isomer, unassigned) [Oleocanthal (+)]",–,–,–,–
19.8 ± 1.3,25.2 ± 2.2,–,–,–,–,–,–,–,–,–,"O=C(O)/C=C/c1ccc(O)c(O)c1 [Caffeic Acid, caffeic acid, reference compound]",–,–,–,–
0.5 ± 0.1,0.1 ± 0.9,–,–,–,–,–,–,–,–,–,"COc1ccc2c(c1)c(CC(=O)O)c(C)n2C(=O)c1ccc(Cl)cc1 [Indomethacin, reference compound]",–,–,–,–
0,0,0.4 ± 0.8,14.5 ± 2.3,56.6 ± 9.5,70.9 ± 8.6,29.4,24.6 ± 7.3,56.1 ± 3.2,83.5 ± 3.5,21.4,"C/C=C(/C=O)[C@@H](CC=O)CC(=O)OCCc1ccc(O)cc1 [Oleocanthal (−), 2-(4-hydroxyphenyl)ethyl, 4-formyl-3-(2-oxoethyl)-4-hexenoic acid ester]",24 out of 40,~20,identical to oleocanthal isolated from premium olive oil,9 of 9
